Experiments:
[1] = Inhibition of BRD8/BRD1 (unknown origin)
[2] = Inhibition of BRD4/BRD1 (unknown origin)
[3] = target: T1, Bromodomain-containing protein 9 (Homo sapiens, UniProt Q9H8M2); test: Inhibition of BRD9 (unknown origin) by TR-FRET assay
T1 sequence (Q9H8M2 whole entry): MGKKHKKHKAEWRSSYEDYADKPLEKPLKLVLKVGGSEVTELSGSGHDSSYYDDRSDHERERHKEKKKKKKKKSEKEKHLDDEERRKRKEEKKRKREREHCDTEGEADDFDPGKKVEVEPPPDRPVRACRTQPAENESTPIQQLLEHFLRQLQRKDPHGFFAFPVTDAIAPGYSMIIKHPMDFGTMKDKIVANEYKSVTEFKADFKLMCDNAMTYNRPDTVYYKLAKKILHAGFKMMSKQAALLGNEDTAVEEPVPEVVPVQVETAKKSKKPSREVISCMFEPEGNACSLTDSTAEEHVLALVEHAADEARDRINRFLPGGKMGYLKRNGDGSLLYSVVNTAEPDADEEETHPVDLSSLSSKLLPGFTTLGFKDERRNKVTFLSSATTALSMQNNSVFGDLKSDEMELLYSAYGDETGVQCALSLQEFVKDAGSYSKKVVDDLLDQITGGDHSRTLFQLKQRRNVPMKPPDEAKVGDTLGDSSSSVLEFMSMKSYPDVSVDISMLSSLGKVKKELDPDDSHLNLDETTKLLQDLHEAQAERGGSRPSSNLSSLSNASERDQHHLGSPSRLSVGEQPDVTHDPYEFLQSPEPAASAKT

[4] = target: T2, Bromodomain-containing protein 1 (Homo sapiens, UniProt O95696); test: Inhibition of BRD1 (unknown origin)
T2 sequence (O95696 whole entry): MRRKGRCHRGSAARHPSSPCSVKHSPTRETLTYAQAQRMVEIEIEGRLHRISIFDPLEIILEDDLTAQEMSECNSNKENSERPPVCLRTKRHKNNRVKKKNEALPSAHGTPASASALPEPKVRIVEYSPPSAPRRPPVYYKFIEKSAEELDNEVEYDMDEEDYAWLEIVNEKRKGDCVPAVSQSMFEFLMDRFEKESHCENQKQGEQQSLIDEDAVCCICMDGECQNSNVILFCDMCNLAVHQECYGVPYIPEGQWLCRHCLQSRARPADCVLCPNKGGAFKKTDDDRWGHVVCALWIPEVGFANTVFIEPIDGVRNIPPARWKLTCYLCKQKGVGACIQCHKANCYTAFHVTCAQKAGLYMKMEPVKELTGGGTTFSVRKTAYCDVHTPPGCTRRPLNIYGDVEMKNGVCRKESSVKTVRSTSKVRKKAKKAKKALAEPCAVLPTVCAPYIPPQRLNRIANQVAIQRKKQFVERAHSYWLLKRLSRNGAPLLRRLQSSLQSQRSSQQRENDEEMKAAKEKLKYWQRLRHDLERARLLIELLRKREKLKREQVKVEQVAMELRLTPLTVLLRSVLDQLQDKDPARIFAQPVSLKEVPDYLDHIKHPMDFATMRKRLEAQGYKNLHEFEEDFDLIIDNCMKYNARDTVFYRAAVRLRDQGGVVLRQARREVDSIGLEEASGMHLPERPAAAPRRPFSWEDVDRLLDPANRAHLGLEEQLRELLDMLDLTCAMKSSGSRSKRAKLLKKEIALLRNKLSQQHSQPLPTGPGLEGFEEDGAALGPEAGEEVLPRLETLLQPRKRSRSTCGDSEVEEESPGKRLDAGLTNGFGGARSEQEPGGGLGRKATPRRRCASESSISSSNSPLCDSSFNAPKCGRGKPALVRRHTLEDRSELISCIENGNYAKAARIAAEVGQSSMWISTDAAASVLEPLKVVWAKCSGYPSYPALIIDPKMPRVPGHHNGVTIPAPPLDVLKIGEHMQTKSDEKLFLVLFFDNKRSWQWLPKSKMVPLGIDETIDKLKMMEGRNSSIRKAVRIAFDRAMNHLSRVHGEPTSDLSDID

[5] = Inhibition of BRD8/BRD1 (unknown origin) by Alpha Screen assay
[6] = Inhibition BRD9/BRD1 (unknown origin) by Alpha Screen assay

IC50 [1] [nM] | IC50 [2] [nM] | IC50 [3] [nM] | IC50 [4] [nM] | IC50 [5] [nM] | IC50 [6] [nM] | Structure (SMILES)
160 | > 10000 | 20 |  |  |  | COc1cc(-c2cn(C)c(=O)c3cc(F)ccc23)c(OC)cc1CN(C)C
80 | > 10000 | > 10000 |  |  |  | COc1cc(CN(C)C)cc(OC)c1-c1cn(C)c(=O)c2cnccc12
 | 7400 | < 10 | 490 |  |  | COc1cc(-c2cn(C)c(=O)c3cnccc23)c(OC)cc1CN1CC(N)C1
 |  |  |  | 12 | 10000 | COc1cc(CN(C)C)cc(OC)c1-c1cn(C)c(=O)c2cc(F)ccc12
